pKd: −log10 of the molar value.
Tests used:
[1] = target: T1, catalytic domain of recombinant human CAIX (Homo sapiens, UniProt Q16790); assay: Thermal shift assay (TSA), recombinant CAIX catalytic domain; format: binding; conditions: for pKd: TSA, 37 °C, pH 7.0, observed (not intrinsic), read-out: Kd CAIX
T1 construct: Isozymes CAIX, CAXII, and CAXIV were the catalytic domains of the proteins; made in house; host or cells: mammalian cells

CAXII = target: T2, CAXII (Homo sapiens, UniProt O43570); assay: Thermal shift assay (TSA), recombinant CAXII; format: binding; conditions: 37 °C, pH 7.0, observed (not intrinsic)
T2 construct: Isozymes CAIX, CAXII, and CAXIV were the catalytic domains of the proteins; made in house; host or cells: E. coli
T2 sequence (O43570 30-289 limits assumed): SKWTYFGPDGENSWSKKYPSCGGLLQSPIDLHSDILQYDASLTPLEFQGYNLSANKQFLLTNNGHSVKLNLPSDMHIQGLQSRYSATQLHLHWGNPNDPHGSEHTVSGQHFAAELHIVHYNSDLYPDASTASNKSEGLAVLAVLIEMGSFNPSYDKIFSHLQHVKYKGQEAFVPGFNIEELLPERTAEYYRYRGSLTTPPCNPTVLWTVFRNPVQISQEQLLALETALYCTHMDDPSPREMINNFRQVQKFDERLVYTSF
Experimental: (§1) The binding affinities of all fluorescein-containing compounds were determined for all 12 catalytically active CA isozymes by the thermal shift assay (TSA). […] However, the SFA technique cannot determine the affinities lower than the enzyme concentration used in the assay. […] In addition, we used isothermal titration calorimetry (ITC), the standard assay to determine affinity and enthalpy of protein–ligand binding. […] Therefore, ITC was used only to determine the enthalpy of interaction and confirm the ordering of compound affinities.
(§2) All twelve catalytically active human CA isozymes were prepared recombinantly as previously described. Isozymes CAIX, CAXII, and CAXIV were the catalytic domains of the proteins[14],[38]. All isozymes were expressed in E. coli except CAIX that has been prepared in mammalian cells. The proteins were chromatographically purified on ion-exchange or benzene sulfonamide containing affinity columns. Protein MW was confirmed by mass spectrometry with 1 Da precision as predicted from gene sequence.
(§3) Compound affinities for the twelve catalytically active CA isozymes were determined by the thermal shift assay as previously described[30],[39]. Protein solutions containing 1,8-anilinonaphthalenesulfonate fluorescent probe were heated from 25 to 100 °C at a rate of one degree per minute while following the fluorescence of the probe. The temperature scanning curves provided the melting temperature Tm of the protein. The Tm has a distinct dependence on the concentration of a compound. Stronger binders shift the Tm to a greater extent than the weak binders. The Tm dependencies on compound concentration were fit to obtain the affinity Kd[40].

CAXIII = target: T3, CAXIII (Homo sapiens, UniProt Q8N1Q1); assay: Thermal shift assay (TSA), recombinant CAXIII; format: binding; conditions: 37 °C, pH 7.0, observed (not intrinsic)
T3 construct: made in house; host or cells: E. coli
T3 sequence (Q8N1Q1 whole entry): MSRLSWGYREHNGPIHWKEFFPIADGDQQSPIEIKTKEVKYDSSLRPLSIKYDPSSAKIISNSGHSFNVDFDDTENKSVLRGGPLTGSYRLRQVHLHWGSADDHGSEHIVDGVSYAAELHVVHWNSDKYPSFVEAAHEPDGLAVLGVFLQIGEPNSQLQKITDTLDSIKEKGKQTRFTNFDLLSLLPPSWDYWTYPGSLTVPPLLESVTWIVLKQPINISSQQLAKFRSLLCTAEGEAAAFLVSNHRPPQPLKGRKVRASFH

CAII = target: T4, CAII (Homo sapiens, UniProt P00918); assay: Thermal shift assay (TSA), recombinant CAII; format: binding; conditions: 37 °C, pH 7.0, observed (not intrinsic)
T4 construct: made in house; host or cells: E. coli
Experimental: as §1, §2, §3

CAVI = target: T5, CAVI (Homo sapiens, UniProt P23280); assay: Thermal shift assay (TSA), recombinant CAVI; format: binding; conditions: 37 °C, pH 7.0, observed (not intrinsic)
T5 construct: made in house; host or cells: E. coli
T5 sequence (P23280 18-308): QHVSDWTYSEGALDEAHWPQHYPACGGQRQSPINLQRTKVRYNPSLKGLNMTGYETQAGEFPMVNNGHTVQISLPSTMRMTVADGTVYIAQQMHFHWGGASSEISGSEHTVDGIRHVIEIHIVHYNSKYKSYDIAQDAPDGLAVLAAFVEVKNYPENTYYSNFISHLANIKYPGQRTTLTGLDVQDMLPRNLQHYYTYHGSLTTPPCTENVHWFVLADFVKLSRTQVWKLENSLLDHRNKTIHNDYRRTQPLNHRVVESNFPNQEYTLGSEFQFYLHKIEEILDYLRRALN
Experimental: as §1, §2, §3

CAI = target: T6, CAI (Homo sapiens, UniProt P00915); assay: Thermal shift assay (TSA), recombinant CAI; format: binding; conditions: 37 °C, pH 7.0, observed (not intrinsic)
T6 construct: made in house; host or cells: E. coli
T6 sequence (P00915 whole entry): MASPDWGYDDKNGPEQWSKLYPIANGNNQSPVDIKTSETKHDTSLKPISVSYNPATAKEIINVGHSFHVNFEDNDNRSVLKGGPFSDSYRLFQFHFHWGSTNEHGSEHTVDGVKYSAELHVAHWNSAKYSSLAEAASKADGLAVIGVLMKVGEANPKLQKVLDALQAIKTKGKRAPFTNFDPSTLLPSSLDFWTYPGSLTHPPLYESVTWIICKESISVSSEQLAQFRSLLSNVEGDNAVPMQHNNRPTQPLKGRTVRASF

CAVII = target: T7, CAVII (Homo sapiens, UniProt P43166); assay: Thermal shift assay (TSA), recombinant CAVII; format: binding; conditions: 37 °C, pH 7.0, observed (not intrinsic)
T7 construct: made in house; host or cells: E. coli
T7 sequence (P43166 whole entry): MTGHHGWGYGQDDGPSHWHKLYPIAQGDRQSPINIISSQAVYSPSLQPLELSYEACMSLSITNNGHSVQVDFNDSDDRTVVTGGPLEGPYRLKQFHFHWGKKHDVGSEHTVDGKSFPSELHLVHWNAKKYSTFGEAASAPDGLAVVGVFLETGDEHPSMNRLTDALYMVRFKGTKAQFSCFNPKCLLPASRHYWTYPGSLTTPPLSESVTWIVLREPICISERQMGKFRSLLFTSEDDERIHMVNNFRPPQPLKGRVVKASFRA

CAIV = target: T8, CAIV (Homo sapiens, UniProt P22748); assay: Thermal shift assay (TSA), recombinant CAIV; format: binding; conditions: 37 °C, pH 7.0, observed (not intrinsic)
T8 construct: made in house; host or cells: E. coli
T8 sequence (P22748 19-312): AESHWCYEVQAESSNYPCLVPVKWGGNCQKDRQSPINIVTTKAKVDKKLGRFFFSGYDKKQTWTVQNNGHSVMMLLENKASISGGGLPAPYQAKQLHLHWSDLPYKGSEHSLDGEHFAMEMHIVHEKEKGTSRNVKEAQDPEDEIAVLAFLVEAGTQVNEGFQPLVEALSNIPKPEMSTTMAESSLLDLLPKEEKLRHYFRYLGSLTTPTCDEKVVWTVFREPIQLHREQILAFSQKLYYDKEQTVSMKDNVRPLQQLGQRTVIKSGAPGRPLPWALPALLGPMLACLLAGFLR

[2] = test system: HeLa CAIX-KO and normoxia-grown WT HeLa cells; assay: Fluorescein-labeled compound dosing to CAIX-KO and normoxia-grown HeLa cells (non-specific binding); format: cell-based, human; conditions: micromolar concentration range, Fig. 9B, 9C
Experimental: (§4) HeLa cell culture was grown in 12-well plates, either under hypoxia (1% O2) or under normoxia (21% O2), for 70 to 76 h. The medium was removed. Then 200 µL of serially diluted compound (twelve twofold steps) in the FB medium, usually starting at 80 nM (80, 40, 20, …, 0 nM), was added and incubated at 37 ℃ under normoxia in the CO2 incubator for 20 min (2 or 5 min in some experiments where specified). Then the compound solution was removed and the cells were washed 3 times for 1.5–2 min with 400 µL of PBS at RT. Then 180 µL of TrypLe express enzyme (ThermoFisher) was added to each well and incubated in CO2 incubator for 5 min to 10 min until the cells deattached from the surface. After addition of 20 µL of Defined Trypsin Inhibitor solution (ThermoFisher), cells were resuspended by pipetting and 150 µL of the suspension from each well were transferred to black Thermo Scientific™ Nunc MicroWell 96-Well Optical-Bottom Plates for fluorescence and absorbance measurements. The fluorescence was recorded at 485 nm excitation and 520 nm emission wavelengths in the plate reader (Synergy HTX, BioTek). The absorbance was recorded at 650 nm to measure the optical density of the cell suspension.
(§5) The compound solution was prepared by weighing 3–5 mg of a purified compound and dissolving in DMSO at 10 mM concentration. The 1 mM compound stock in DMSO was prepared by taking 10 µL of 10 mM stock and adding to 90 µL DMSO. The 10 µM compound stock was prepared by taking 10 µL of 1 mM compound stock in DMSO and adding 990 µL of the FB medium (this stock contained 1% of DMSO). Then 80 nM compound solution was prepared by taking 10 µL of 10 µM solution and adding 1.24 mL of the FB medium and placed to the first Eppendorf tube. Then 300 µL of FB medium were added to the Eppendorf tubes 2 to 12. A serial dilution was performed by taking 300 µL of solution from tube 1 to 2, then from 2 to 3 and so on while mixing vigorously at each step. No solution was transferred to the last tube thus it contained only FB medium and no compound. Then 200 µL from 12 tubes were transferred to the 12 wells of cell culture-containing 12-well plate, starting from the lowest concentration.
This equation was fit to the dosing curves of several fluorescently-labeled ligands to both the cells grown in hypoxia and in normoxia, both to the WT and CRISPR-Cas9 CAIX knockout cells. The cells bound both the GZ19-32 and GZ20-40 ligands that differed only in the length of the linker and both contained the same head-group. […] Furthermore, the ligands that had their sulfonamide amino group substituted with the methyl completely abandoned their capability of binding CAIX in this concentration region. The binding was also abolished for the CAIX-KO HeLa cells.

CAXIV = target: T9, CAXIV (Homo sapiens, UniProt Q9ULX7); assay: Thermal shift assay (TSA), recombinant CAXIV; format: binding; conditions: 37 °C, pH 7.0, observed (not intrinsic)
T9 construct: Isozymes CAIX, CAXII, and CAXIV were the catalytic domains of the proteins; made in house; host or cells: E. coli
T9 sequence (Q9ULX7 20-278 limits assumed): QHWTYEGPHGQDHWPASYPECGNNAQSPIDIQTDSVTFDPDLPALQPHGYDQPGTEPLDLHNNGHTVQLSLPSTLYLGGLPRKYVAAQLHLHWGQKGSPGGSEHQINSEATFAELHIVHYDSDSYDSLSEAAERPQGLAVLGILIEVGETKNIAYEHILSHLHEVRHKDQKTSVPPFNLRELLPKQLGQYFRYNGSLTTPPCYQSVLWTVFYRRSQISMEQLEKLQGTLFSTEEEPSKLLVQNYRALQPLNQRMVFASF

CAVA = target: T10, CAVA (Homo sapiens, UniProt P35218); assay: Thermal shift assay (TSA), recombinant CAVA; format: binding; conditions: 37 °C, pH 7.0, observed (not intrinsic)
T10 construct: made in house; host or cells: E. coli
T10 sequence (P35218 39-305): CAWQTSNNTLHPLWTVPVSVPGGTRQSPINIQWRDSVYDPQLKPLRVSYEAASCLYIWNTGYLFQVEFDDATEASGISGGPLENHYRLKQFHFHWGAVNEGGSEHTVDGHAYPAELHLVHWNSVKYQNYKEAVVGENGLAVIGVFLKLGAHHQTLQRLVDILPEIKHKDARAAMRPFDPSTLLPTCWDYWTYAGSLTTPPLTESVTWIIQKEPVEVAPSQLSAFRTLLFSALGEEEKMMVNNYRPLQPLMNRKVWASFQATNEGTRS
Experimental: as §1, §2, §3

[3] = target: T11, CAIX expressed on HeLa cells (Homo sapiens, UniProt Q16790); assay: Fluorescein-labeled compound dosing to hypoxia-grown WT HeLa cells (Morrison single-site model); format: cell-based; conditions: same conditions as GZ19-32, up to about 100 nM
T11 construct: recombinant CAIX and endogenous CAIX expressed on the cell surface; endogenous in cells; host or cells: HeLa (WT), grown under hypoxia (1% O2)
Experimental: as §4, §5
Application of fluorescently labeled ligand GZ19-32 to cancer cells expressing CAIX will stain the cells in dose-dependent manner. The fraction of saturation increases from 0 to 1. The fraction of bound GZ19-32 (f) is equal to the molar concentration of bound GZ19-32 per molar concentration of total available CAIX, the so-called total protein Pt . f=GZ19-32bound/Pt
Upon GZ19-32 dosing, the observed fluorescence signal F can be modeled to change from the minimal background signal ( Fmin ) to maximal saturated value ( Fmax ): F=Fmin+Fmax-Fminf […]

CAVB = target: T12, CAVB (Homo sapiens, UniProt Q9Y2D0); assay: Thermal shift assay (TSA), recombinant CAVB; format: binding; conditions: 37 °C, pH 7.0, observed (not intrinsic)
T12 construct: made in house; host or cells: E. coli
T12 sequence (Q9Y2D0 34-317): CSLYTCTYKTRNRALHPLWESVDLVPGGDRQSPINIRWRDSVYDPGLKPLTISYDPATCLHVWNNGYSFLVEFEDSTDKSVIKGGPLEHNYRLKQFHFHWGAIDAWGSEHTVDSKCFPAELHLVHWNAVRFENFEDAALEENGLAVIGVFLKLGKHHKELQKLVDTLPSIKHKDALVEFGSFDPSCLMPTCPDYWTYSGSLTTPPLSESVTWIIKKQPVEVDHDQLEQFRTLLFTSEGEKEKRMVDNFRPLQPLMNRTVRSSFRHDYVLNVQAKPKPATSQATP

CAIII = target: T13, CAIII (Homo sapiens, UniProt P07451); assay: Thermal shift assay (TSA), recombinant CAIII; format: binding; conditions: 37 °C, pH 7.0, observed (not intrinsic)
T13 construct: made in house; host or cells: E. coli
T13 sequence (P07451 whole entry): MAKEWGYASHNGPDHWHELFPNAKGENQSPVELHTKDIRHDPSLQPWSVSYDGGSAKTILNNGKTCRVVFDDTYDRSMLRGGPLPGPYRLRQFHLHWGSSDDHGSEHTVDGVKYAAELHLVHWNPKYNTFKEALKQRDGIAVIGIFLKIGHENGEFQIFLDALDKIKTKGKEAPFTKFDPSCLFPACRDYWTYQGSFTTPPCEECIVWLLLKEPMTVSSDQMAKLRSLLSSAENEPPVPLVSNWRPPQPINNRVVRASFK
Experimental: as §1, §2, §3

[4] = target: CAIX expressed on live A549 cells (Homo sapiens, UniProt Q16790); assay: Competition of unlabeled compound with 10 nM GZ19-32 on hypoxic A549 cells (competitive binding model); conditions: ratio of KdA

SMILES	pKd [1]	binding to CAIX by TSA (in words) ([1]; recombinant CAIX)	pKd (CAXII)	pKd (CAXIII)	pKd (CAII)	pKd (CAVI)	pKd (CAI)	pKd (CAVII)	pKd (CAIV)	non-specific binding to cells [2]	melting point [°C]	pKd (CAXIV)	pKd (CAVA)	binding to hypoxia-grown HeLa cells in the nM concentration region [3]	pKd (CAVB)	pKd (CAIII)	weaker binding to CAIX in A549 than HeLa cells [4] [times]
NS(=O)(=O)c1c(F)c(F)c(S(=O)(=O)CCC(=O)Nc2ccc3c(c2)C(=O)OC32c3ccc(O)cc3Oc3cc(O)ccc32)c(F)c1F [GZ19-31, N-(3',6'-dihydroxy-3-oxo-3H-spiro[isobenzofuran-1,9'-xanthen]-5-yl)-3-((2,3,5,6-tetrafluoro-4-sulfamoylphenyl)sulfonyl)propanamide]	8.77	medium affinity (nM range)	7.40	8.77	8.77	6.85	11.30	8.70	6.85	bound cells in the micromolar concentration range	175 to 176	7.60	7.54	did not bind	7.70	5.60	
CS(=O)(=O)c1c(F)c(F)c(SCCC(=O)Nc2ccc3c(c2)C(=O)OC32c3ccc(O)cc3Oc3cc(O)ccc32)c(F)c1F [GZ19-33, N-(3',6'-dihydroxy-3-oxo-3H-spiro[isobenzofuran-1,9'-xanthen]-5-yl)-3-((2,3,5,6-tetrafluoro-4-(methylsulfonyl)phenyl)thio)propanamide]	< 4.00		< 4.00	< 4.00	< 4.00	< 4.00	< 4.00	< 4.00	< 4.00	bound cells in the micromolar concentration range	181 to 182	< 4.00	< 4.00		< 4.00	< 4.00	
NS(=O)(=O)c1c(F)c(F)c(S(=O)(=O)CCC(=O)NCCCC(=O)Nc2ccc3c(c2)C(=O)OC32c3ccc(O)cc3Oc3cc(O)ccc32)c(NC2CCCCCCC2)c1F [GZ20-40, 4-(3-((2-(cyclooctylamino)-3,5,6-trifluoro-4-sulfamoylphenyl)sulfonyl)propanamido)-N-(3',6'-dihydroxy-3-oxo-3H-spiro[isobenzofuran-1,9'-xanthen]-5-yl)butanamide]	11.00		8.15	9.00	6.70	6.60	6.30	8.15	6.30		180 to 181	8.60	6.00		7.48	5.17	
NS(=O)(=O)c1ccc(NC(=O)Nc2ccc(F)cc2)cc1 [SLC-0111, 4-(3-(4-fluorophenyl)ureido)benzenesulfonamide, reference compound]						5.00							5.22			< 3.70	6

— article PMC9586938, “Picomolar fluorescent probes for compound affinity determination to carbonic anhydrase IX expressed in live cancer cells” (Scientific Reports, 2022)
